Experiment [1] concerns the target T1, recombinant rat L-type calcium channel (LTCC) subunits (α1c, α2δ, and β1) (Rattus norvegicus, UniProt P22002).
T1 construct: expressed in transfected cells; α1c in pcDNA6.2DEST, β1 in pcDNA3.2DEST, α2δ in pcDNA3.1-Zeo
Nature of the experiment: FLIPR calcium mobilization assay for L-type calcium channel. It is filed as cell-based. The conditions noted are these: calcium mobilization in vitro assay; HEK293 cells stably expressing rat LTCC subunits, 90 mM KCl. As to the method:
Recombinant human embryonal kidney cells (HEK293, ATCC) stably transfected with either N-type calcium channel (NTCC) subunits (α1b (SEQ ID NOs: 13 to 15), α2δ (SEQ ID Nos: 16, 17), and β3 (SEQ ID NOs:18 to 20)) or L-type calcium channel (LTCC) subunits (α1c (SEQ ID NOs:21, 22), α2δ, and β1 (SEQ ID NOs:23 to 25)) were routinely cultured in growth medium consisting of Dulbecco's Modified Eagles Medium containing 10% FBS, 100 U/mL penicillin, 100 μg/mL streptomycin, 4 mM L-glutamine, 500 μg/mL geneticin (G418), 20 μg/mL Blasticidin S (InVivogen, San Diego, Calif.) and 500 μg/mL zeocin (InVivogen).
FLIPR Calcium Mobilization Assay for L-type Calcium Channel. One day prior to performing this assay, HEK293 cells stably expressing recombinant rat L-type calcium channel (LTCC) subunits (α1c, α2δ, and β1) were trypsinized, then seeded on poly-D-lysine-coated 96-well clear-bottom black plates (Becton Dickinson, Franklin Lakes, N.J.) at 75,000 cells/well. On the day of the assay, the plates were washed with LTCC wash buffer (127 mM NaCl, 2 mM MgCl2, 700 μM NaH2PO4, 5 mM CaCl2, 5 mM NaHCO3, 8 mM HEPES, 10 mM glucose, pH 7.4), then loaded with 0.1 mL of LTCC wash buffer containing Fluo-4 (3 μM final concentration, Molecular Probes, Eugene, Oreg.). After 1 hour, the cells were washed with 0.1 mL LTCC wash buffer and resuspended in 0.05 mL LTCC assay buffer (same composition as LTCC wash buffer). Plates were then transferred to a FLIPR^96 for assay. The FLIPR measured basal Fluo-4 fluorescence for 15 seconds, then added 0.05 mL of each compound tested diluted in LTCC assay buffer at final concentrations ranging from about 846 pM to about […]. Fluo-4 fluorescence was then measured for 5 minutes. 0.1 mL KCl agonist dissolved in LTCC assay buffer was then added to the cells to produce a final concentration of 90 mM KCl, and fluorescence was measured for another 45 seconds. Data were collected over the entire time course and analyzed using Excel, Graph Pad Prism, or an in-house regression analysis software.
L-type Recombinant Cell Line Development. L-type calcium channel expressing HEK-293 cells were created in two stages. Stage 1 was created as follows. The rat α1c, and β1 cDNA expression constructs (2.5 μg each) were co-transfected into human embryonic kidney (HEK-293) cells by Lipofectamine Plus reagent (Invitrogen), as per manufacturer's instructions. 24 hours later, cells were split in limiting dilution into multiple 96-well plates in selection media containing 20 μg/mL blasticidin and 500 μg/mL geneticin, and incubated for 3 weeks at 37° C., 5% CO2, 95% humidity. Plates containing ≦1 clone per well were cultured until wells positive for single clones were confluent. Individual clones were then arrayed into columns of a destination 96-well plate, and partly split into 6-well plates for culture maintenance. Array plates were washed once with LTCC wash (or assay) buffer and cells loaded for 1 hour with 0.1 mL of LTCC buffer containing Fluo-4 (3 μM final concentration, Molecular Probes). Then they were washed twice with 0.1 mL of LTCC buffer, and replaced with 0.1 mL LTCC buffer. Plates were then transferred to a FLIPR^96 for assay. The FLIPR measured basal Fluo-4 fluorescence for 315 seconds, then added 0.1 mL KCl agonist dissolved in LTCC buffer and measured fluorescence for another 45 seconds. Final KCl concentration was 90 mM. Data were collected over the entire time course and analyzed using Excel, Graph Pad Prism, or Activity Base software. The clone with the greatest signal-to-noise ratio, best stability of response with passage number, and best adhesion to PDL precoated plates (Becton Dickinson) was expanded, characterized and used for stage 2 cell line development.
Stage 2 of L-type cell line development was carried out as follows. The rat α2δ cDNA expression construct (5 μg each) was transfected into the stage 1 L-type clonal cell line by Lipofectamine Plus reagent (Invitrogen), as per manufacturer's instructions. […]
In general terms: Calcium assays in cells follow changes in intracellular calcium, usually with a dye or a luminescent sensor.

Experiment [2] concerns the target T2, N-type calcium channel (NTCC) (Homo sapiens, UniProt Q00975).
T2 construct: endogenous in cells; host or cells: IMR32 cells (ATCC), differentiated with dibutyryl cAMP and bromodeoxyuridine
As to the kind of experiment: FLIPR calcium mobilization assay for N-type calcium channel. It is filed as cell-based. The conditions noted are these: calcium mobilization in vitro assay; differentiated IMR32 cells, 5 μM nitrendipine, 90 mM KCl. As to the method:
Cell maintenance and differentiation. Unless noted otherwise, cell culture reagents were purchased from Mediatech of Herndon, Md. IMR32 cells (American Type Culture Collection, ATCC, Manassas, Va.) were routinely cultured in growth medium consisting of minimum essential medium containing 10% fetal bovine serum (FBS, Hyclone, Logan, Utah), 100 U/mL penicillin, 100 μg/mL streptomycin, 2 mM L-glutamine, 1 mM sodium pyruvate, and 1×MEM non-essential amino acids. 80-90% confluent flasks of cells were differentiated using the following differentiation medium: Growth medium plus 1 mM dibutyryl cyclic AMP (Sigma, St. Louis, Mo.), and 2.5 μM bromodeoxyuridine (Sigma). Cells were differentiated for 8 days by replacing differentiation medium every 2-3 days.
FLIPR Calcium Mobilization Assay for N-type Calcium Channel. One day prior to performing this assay, differentiated IMR32 cells were treated with 1× CellStripper, and seeded on poly-D-lysine-coated 96-well clear-bottom black plates (Becton Dickinson, Franklin Lakes, N.J.) at 200,000 cells/well. On the day of the assay, the cell plates were washed with IMR32 buffer (127 mM NaCl, 1 mM KCl, 2 mM MgCl2, 700 μM NaH2PO4, 5 mM CaCl2, 5 mM NaHCO3, 8 mM HEPES, 10 mM glucose, pH 7.4), then pre-stimulated with KCl and loaded as follows: 0.05 mL of IMR32 buffer, 0.05 mL of each compound tested diluted in IMR32 buffer containing 20 μM nitrendipine (Sigma), and 0.1 mL KCl dissolved in IMR32 buffer, plus Fluo-4 were added (3 μM final concentration, Molecular Probes, Eugene, Oreg.). Final test compound concentrations ranged from about 846 pM to about 17 μM, final nitrendipine concentration was 5 μM, and final KCl concentration was 90 mM. After 1 hour, the cells were washed twice with 0.05 mL of each compound tested in nitrendipine-containing IMR32 buffer (no KCl or Fluo-4), and then replaced with 0.1 mL of each compound tested in nitrendipine-containing IMR32 buffer. Plates were then transferred to a Fluorimetric Imaging Plate Reader (FLIPR^96, Molecular Devices, Inc., Sunnyvale, Calif.) for assay. The FLIPR measured basal Fluo-4 fluorescence for 315 seconds (i.e., 5 minutes and 15 seconds), then added 0.1 mL KCl agonist dissolved in IMR32 buffer and measured fluorescence for another 45 seconds. Final test compound concentrations on the cells after FLIPR read ranged from about 846 pM to about 17 μM, final nitrendipine concentration was 5 μM, and final KCl concentration was 90 mM. Data were collected over the entire time course and analyzed using Excel, Graph Pad Prism (version 3.02, Graph Pad, San Diego, Calif.), or an in-house non-linear regression analysis software.

pIC50: −log10 of the molar value.

T1 sequence (P22002 whole entry): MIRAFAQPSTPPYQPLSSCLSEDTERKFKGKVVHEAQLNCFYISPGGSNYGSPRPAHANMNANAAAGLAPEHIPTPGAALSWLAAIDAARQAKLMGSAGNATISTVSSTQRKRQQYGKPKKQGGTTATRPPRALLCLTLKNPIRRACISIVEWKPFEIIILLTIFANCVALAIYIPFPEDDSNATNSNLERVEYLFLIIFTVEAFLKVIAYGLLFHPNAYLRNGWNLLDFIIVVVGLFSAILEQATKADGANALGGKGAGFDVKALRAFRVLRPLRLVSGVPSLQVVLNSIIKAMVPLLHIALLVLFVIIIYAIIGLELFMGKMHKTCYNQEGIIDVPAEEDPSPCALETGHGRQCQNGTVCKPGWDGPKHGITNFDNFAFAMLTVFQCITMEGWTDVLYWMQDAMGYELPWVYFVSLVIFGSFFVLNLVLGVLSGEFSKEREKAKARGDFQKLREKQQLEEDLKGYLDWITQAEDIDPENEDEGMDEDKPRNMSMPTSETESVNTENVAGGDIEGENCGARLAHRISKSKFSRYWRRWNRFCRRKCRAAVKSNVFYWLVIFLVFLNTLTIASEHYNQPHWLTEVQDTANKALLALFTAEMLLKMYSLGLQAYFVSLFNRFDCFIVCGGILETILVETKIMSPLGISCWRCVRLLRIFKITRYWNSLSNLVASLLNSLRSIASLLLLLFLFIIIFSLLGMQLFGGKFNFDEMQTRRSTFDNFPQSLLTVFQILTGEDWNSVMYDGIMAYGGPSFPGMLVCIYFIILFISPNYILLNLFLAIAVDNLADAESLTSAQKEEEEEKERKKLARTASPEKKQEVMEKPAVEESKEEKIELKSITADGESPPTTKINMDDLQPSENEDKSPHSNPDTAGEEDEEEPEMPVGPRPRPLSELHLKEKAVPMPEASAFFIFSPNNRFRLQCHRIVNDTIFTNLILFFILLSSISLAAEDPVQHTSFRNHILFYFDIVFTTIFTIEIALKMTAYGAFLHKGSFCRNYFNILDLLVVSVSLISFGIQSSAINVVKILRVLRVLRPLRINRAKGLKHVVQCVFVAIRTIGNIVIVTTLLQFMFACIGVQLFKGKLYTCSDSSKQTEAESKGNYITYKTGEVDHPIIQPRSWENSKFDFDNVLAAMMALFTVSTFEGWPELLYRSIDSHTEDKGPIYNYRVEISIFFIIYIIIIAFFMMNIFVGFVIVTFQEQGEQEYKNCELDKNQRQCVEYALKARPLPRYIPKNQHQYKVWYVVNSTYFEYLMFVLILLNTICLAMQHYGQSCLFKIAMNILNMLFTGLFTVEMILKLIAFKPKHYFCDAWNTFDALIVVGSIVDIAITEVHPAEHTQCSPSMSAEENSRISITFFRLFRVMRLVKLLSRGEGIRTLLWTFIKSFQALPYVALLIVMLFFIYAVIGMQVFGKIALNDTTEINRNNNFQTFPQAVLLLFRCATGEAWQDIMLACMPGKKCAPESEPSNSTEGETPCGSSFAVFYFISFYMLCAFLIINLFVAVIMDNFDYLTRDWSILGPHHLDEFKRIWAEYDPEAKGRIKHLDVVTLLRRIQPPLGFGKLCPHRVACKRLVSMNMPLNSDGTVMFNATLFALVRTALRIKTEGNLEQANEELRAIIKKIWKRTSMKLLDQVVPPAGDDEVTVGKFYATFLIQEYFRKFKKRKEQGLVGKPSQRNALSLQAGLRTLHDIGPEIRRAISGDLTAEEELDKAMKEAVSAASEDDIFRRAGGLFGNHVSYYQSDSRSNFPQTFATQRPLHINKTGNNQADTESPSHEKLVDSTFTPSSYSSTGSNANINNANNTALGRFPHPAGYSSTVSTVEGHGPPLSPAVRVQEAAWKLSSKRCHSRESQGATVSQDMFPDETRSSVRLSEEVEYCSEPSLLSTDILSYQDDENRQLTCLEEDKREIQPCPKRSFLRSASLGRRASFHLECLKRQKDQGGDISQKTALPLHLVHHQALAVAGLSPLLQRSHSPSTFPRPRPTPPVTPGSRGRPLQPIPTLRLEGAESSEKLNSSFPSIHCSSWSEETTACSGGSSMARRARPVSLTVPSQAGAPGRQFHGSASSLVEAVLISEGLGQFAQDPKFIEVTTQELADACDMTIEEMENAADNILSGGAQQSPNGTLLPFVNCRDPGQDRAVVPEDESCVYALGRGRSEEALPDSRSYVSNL
T1 sequence (P54290 25-944 partner): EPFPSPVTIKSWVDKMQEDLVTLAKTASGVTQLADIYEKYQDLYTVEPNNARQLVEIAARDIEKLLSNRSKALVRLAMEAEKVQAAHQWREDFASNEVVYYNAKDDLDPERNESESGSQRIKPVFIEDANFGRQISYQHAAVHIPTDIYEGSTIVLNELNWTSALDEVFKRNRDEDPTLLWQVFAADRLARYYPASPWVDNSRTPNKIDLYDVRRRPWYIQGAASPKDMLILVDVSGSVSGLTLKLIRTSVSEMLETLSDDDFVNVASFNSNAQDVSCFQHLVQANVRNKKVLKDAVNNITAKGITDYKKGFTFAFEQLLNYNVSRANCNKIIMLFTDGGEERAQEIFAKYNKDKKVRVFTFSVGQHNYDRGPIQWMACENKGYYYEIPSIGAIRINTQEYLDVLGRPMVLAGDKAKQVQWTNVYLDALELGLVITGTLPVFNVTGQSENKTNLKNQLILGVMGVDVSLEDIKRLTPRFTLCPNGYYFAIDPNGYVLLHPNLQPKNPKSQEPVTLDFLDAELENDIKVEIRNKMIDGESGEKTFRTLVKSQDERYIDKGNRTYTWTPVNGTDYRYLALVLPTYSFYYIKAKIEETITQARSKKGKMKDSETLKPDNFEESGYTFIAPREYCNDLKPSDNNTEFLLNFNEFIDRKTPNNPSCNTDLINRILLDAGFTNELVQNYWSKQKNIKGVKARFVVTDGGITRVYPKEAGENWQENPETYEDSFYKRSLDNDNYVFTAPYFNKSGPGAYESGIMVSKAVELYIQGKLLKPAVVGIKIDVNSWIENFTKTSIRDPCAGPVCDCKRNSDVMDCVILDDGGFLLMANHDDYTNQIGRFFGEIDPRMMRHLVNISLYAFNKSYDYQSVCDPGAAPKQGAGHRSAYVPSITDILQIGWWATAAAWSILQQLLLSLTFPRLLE
T1 sequence (P54290 945-1091 partner): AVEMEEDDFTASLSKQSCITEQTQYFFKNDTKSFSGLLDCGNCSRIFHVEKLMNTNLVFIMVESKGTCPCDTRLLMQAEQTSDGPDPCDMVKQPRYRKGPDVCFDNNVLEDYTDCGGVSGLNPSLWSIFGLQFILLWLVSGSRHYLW
T1 sequence (P54283 whole entry partner): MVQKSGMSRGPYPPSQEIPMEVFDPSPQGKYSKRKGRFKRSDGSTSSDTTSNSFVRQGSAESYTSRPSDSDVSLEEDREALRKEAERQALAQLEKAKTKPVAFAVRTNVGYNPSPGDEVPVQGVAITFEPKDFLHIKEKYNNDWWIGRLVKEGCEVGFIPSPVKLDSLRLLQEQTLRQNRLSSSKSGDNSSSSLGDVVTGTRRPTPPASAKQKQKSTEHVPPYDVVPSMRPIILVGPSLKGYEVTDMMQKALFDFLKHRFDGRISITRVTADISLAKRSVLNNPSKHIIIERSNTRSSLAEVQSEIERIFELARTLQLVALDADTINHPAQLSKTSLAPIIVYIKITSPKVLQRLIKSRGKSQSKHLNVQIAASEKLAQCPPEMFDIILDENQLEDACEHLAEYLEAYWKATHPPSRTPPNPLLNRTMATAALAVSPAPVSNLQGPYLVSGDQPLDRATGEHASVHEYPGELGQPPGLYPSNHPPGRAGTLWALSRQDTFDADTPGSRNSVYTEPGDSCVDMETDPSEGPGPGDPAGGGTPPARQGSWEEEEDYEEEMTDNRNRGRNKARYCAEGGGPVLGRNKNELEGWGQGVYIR

In the case of `CC(C)N(C1CCN(CCC(=O)N2CCCCC2)CC1)S(=O)(=O)c1cccc(C(F)(F)F)c1` [Compound 18, N-Isopropyl-N-[1-(3-oxo-3-piperidin-1-yl-propyl)-piperidin-4-yl]-3-trifluoromethyl-benzenesulfonamide], the pIC50 (usually the negative decadic logarithm of the IC50, by convention in mol/L) was below 4.70 in experiment [1] and 6.11 in experiment [2].
With `CC(C)N(C1CCN(CC(=O)Nc2ccc3c(c2)OC(F)(F)O3)CC1)S(=O)(=O)c1cccc(C(F)(F)F)c1` [Compound 31f, N-(2,2-Difluoro-benzo[1,3]dioxol-5-yl)-2-{4-[isopropyl-(3-trifluoromethyl-benzenesulfonyl)-amino]-piperidin-1-yl}-acetamide], the values for the pIC50 in experiment [1] and in experiment [2] were below 4.70 and 6.24, respectively.
As for `O=C(CN1CCC(N(C2CC2)S(=O)(=O)c2cccc(C(F)(F)F)c2)CC1)Oc1ccc(Cl)cc1` [Compound 8c, {-4-[Cyclopropyl-(3-trifluoromethyl-benzenesulfonyl)amino]piperidin-1-yl}acetic acid 4-chlorophenyl ester], the pIC50 in experiment [1] was below 4.70; in experiment [2], 6.22.
Turning to `CC(CC(=O)NC(C)(C)C)N1CCC(N(C(C)C)S(=O)(=O)c2cccc(C(F)(F)F)c2)CC1` (centres unmarked) [Compound 25, 3-{4-[Isopropyl-(3-trifluoromethyl-benzenesulfonyl)amino]piperidin-1-yl}-N-tert-butyl-butyramide], the pIC50 was 5.07 in experiment [1] and 6.62 in experiment [2].
In the case of `CC(C)N(C1CCN(CC(=O)NC2CC3CCC2C3)CC1)S(=O)(=O)c1cccc(C(F)(F)F)c1` (centres unmarked) [Compound 31d, N-Bicyclo[2.2.1]hept-2-yl-2-{4-[isopropyl-(3-trifluoromethyl-benzenesulfonyl)-amino]-piperidin-1-yl}-acetamide], the pIC50 was 5.39 in experiment [1] and 6.47 in experiment [2].
As to `CC(C)N(C1CCN(CC(=O)N2CCCCCC2)CC1)S(=O)(=O)c1cccc(C(F)(F)F)c1` [Compound 31a, N-[1-(2-Azepan-1-yl-2-oxo-ethyl)-piperidin-4-yl]-N-isopropyl-3-trifluoromethyl-benzenesulfonamide], the pIC50 is below 4.70 in experiment [1] and 6.52 in experiment [2].
For the compound `CC(C(=O)Nc1ccccc1)N1CCC(N(C2CC2)S(=O)(=O)c2cccc(C(F)(F)F)c2)CC1` (centres unmarked) [Compound 27b, 2-{4-[Cyclopropyl-(3-trifluoromethyl-benzenesulfonyl)-amino]piperidin-1-yl}-N-phenyl-propionamide], the negative logarithm of the IC50 (pIC50) is below 4.70 in experiment [1] and 6.41 in experiment [2].

Values taken from patent US8765736B2, “Benzenesulfonamide compounds and the use thereof” (Purdue Pharma L.P., priority 2007, dated 2014).
